Reference: patent publication US6737383B1, “Herbicidal oxadiazolidines” (priority 1999, dated 2004)

Key:
[1] = system: blackgrass; experiment: Test B pre/postemergence blackgrass; type: in vivo, Alopecurus myosuroides
How it was run: (§1)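 Herbicidal effect was estimated by eye on a ten-point control scale after plants spent twelve to sixteen days in a greenhouse following soil or foliar treatment. Foliar sprays targeted plants at one to four leaves; all doses were formulated in a non-phytotoxic solvent with surfactant.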

[2] = system: purple nutsedge; experiment: Test B pre/postemergence purple nutsedge; type: in vivo, Cyperus rotundus
How it was run: as §1

[3] = system: smallflower flatsedge; experiment: Test B flood test smallflower flatsedge; type: in vivo, Cyperus difformis
How it was run: (§2)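 Flood test on plants grown to the 2-leaf stage; treated plants kept in greenhouse twelve to sixteen days, then visually rated against controls on a 0 (no effect) to 10 (complete control) scale.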

[4] = system: corn; experiment: Test B pre/postemergence corn; type: in vivo, Zea mays
How it was run: as §1

[5] = system: surinam grass; experiment: Test B pre/postemergence surinam grass; type: in vivo, Brachiaria decumbens
How it was run: as §1

[6] = system: cocklebur; experiment: Test B pre/postemergence cocklebur; type: in vivo, Xanthium strumarium
How it was run: as §1

[7] = system: giant foxtail; experiment: Test B pre/postemergence giant foxtail; type: in vivo, Setaria faberii
How it was run: as §1

[8] = system: wild oat; experiment: Test B pre/postemergence wild oat; type: in vivo, Avena fatua
How it was run: as §1

[9] = system: rice; experiment: Test B flood test rice; type: in vivo, Oryza sativa
How it was run: as §2

[10] = system: bamyardgrass; experiment: Test B flood test barnyardgrass; type: in vivo, Echinochloa crus-galli
How it was run: as §2

[11] = system: velvetleaf; experiment: Test B pre/postemergence velvetleaf; type: in vivo, Abutilon theophrasti
How it was run: as §1

[12] = system: soybean; experiment: Test B pre/postemergence soybean; type: in vivo, Glycine max
How it was run: as §1

[13] = system: crabgrass; experiment: Test B pre/postemergence crabgrass; type: in vivo, Digitaria sanguinalis
How it was run: as §1

[14] = system: morningglory; experiment: Test B pre/postemergence morningglory; type: in vivo, Ipomoea hederacea
How it was run: as §1

[15] = system: bedstraw; experiment: Test B pre/postemergence bedstraw; type: in vivo, Galium aparine
How it was run: as §1

[16] = system: wheat; experiment: Test B pre/postemergence wheat; type: in vivo, Triticum aestivum
How it was run: as §1

[17] = system: duck salad; experiment: Test B flood test duck salad; type: in vivo, Heteranthera limosa
How it was run: as §2

[18] = Postemergence, Rate 62 g/ha, scale 0 to 10, 0 is no effect, 10 is complete control
[19] = Postemergence, Rate 250 g/ha, scale 0 to 10, 0 no effect, 10 complete control
[20] = Preemergence, Rate 31 g/ha, visual rating, scale 0 to 10 (0 no effect, 10 complete control)
[21] = Preemergence, Rate 62 g/ha, scale 0 to 10, 0 is no effect, 10 is complete control
[22] = Preemergence, Rate 125 g/ha, scale 0 to 10 (0 no effect, 10 complete control)
[23] = Preemergence, Rate 250 g/ha, scale of 0 to 10 where 0 is no effect and 10 is complete control
[24] = Rate 31 g/ha, Postemergence, scale 0 to 10
[25] = Rate 125 g/ha, Postemergence, scale 0 to 10, 0 no effect, 10 complete control
[26] = Rate 125 g/ha, Postemergence section (flood test species), scale 0 to 10, 0 no effect, 10 complete control
[27] = flood test, listed under Postemergence, Rate 250 g/ha, scale 0 to 10, 0 no effect, 10 complete control
[28] = Rate 500 g/ha, Postemergence section of Table B, 0 to 10 scale (0 no effect, 10 complete control)

Question: `CCN(C(=O)n1oc(=O)n(-c2ccc(C)cc2C)c1=O)C1CCCCC1` [Compound 26] was tested. Which “Blackgrass plant response rating” value [1, 18] did it give?
Answer: 0

Question: What about the “Blackgrass plant response rating” value [1, 19] of the same compound?
Answer: 0

Question: What about the “Blackgrass plant response rating” value [1, 20] of the same compound?
Answer: 0

Question: What about the “Plant response rating, Blackgrass” value [1, 21] of the same compound?
Answer: 0

Question: What about the “Plant response rating, Blackgrass” value [1, 22] of the same compound?
Answer: 0

Question: What about the “Plant response rating, Blackgrass” value [1, 23] of the same compound?
Answer: 0

Question: What about the “Blackgrass plant response rating” value [1, 24] of the same compound?
Answer: 0

Question: What about the “Blackgrass plant response rating” value [1, 25] of the same compound?
Answer: 0

Question: What about the “Nutsedge plant response rating” value [2, 18] of the same compound?
Answer: 0

Question: And the “Nutsedge plant response rating” value [2, 19]?
Answer: 0

Question: And the “Nutsedge plant response rating” value [2, 20]?
Answer: 0

Question: And the “Plant response rating, Nutsedge” value [2, 21]?
Answer: 0

Question: What about the “Plant response rating, Nutsedge” value [2, 22] of the same compound?
Answer: 0

Question: What about the “Plant response rating, Nutsedge” value [2, 23] of the same compound?
Answer: 0

Question: And the “Nutsedge plant response rating” value [2, 24]?
Answer: 0

Question: What about the “Nutsedge plant response rating” value [2, 25] of the same compound?
Answer: 0

Question: And the “S. Flatsedge plant response rating” value [3, 18]?
Answer: 0

Question: And the “S. Flatsedge plant response rating” value [3, 26]?
Answer: 0

Question: And the “S. Flatsedge plant response rating” value [3, 27]?
Answer: 0

Question: And the “Corn plant response rating” value [4, 18]?
Answer: 0

Question: What about the “Corn plant response rating” value [4, 19] of the same compound?
Answer: 0

Question: What about the “Corn plant response rating” value [4, 20] of the same compound?
Answer: 0

Question: And the “Plant response rating, Corn” value [4, 21]?
Answer: 0

Question: And the “Plant response rating, Corn” value [4, 22]?
Answer: 0

Question: And the “Plant response rating, Corn” value [4, 23]?
Answer: 0

Question: And the “Corn plant response rating” value [4, 24]?
Answer: 0

Question: What about the “Corn plant response rating” value [4, 25] of the same compound?
Answer: 0

Question: What about the “B. signalgrass plant response rating” value [5, 18] of the same compound?
Answer: 0

Question: What about the “B. signalgrass plant response rating” value [5, 19] of the same compound?
Answer: 0

Question: And the “B. signalgrass plant response rating” value [5, 20]?
Answer: 0

Question: What about the “Plant response rating, B. signalgrass” value [5, 21] of the same compound?
Answer: 0

Question: And the “Plant response rating, B. signalgrass” value [5, 22]?
Answer: 0

Question: And the “Plant response rating, B. signalgrass” value [5, 23]?
Answer: 2

Question: And the “B. signalgrass plant response rating” value [5, 24]?
Answer: 0

Question: And the “B. signalgrass plant response rating” value [5, 25]?
Answer: 0

Question: What about the “Cocklebur plant response rating” value [6, 18] of the same compound?
Answer: 0

Question: What about the “Cocklebur plant response rating” value [6, 19] of the same compound?
Answer: 0

Question: What about the “Cocklebur plant response rating” value [6, 20] of the same compound?
Answer: 0

Question: And the “Plant response rating, Cocklebur” value [6, 21]?
Answer: 0

Question: What about the “Plant response rating, Cocklebur” value [6, 22] of the same compound?
Answer: 0

Question: What about the “Plant response rating, Cocklebur” value [6, 23] of the same compound?
Answer: 0

Question: What about the “Cocklebur plant response rating” value [6, 24] of the same compound?
Answer: 0

Question: And the “Cocklebur plant response rating” value [6, 25]?
Answer: 0

Question: And the “Giant foxtail plant response rating” value [7, 18]?
Answer: 0

Question: And the “Giant foxtail plant response rating” value [7, 19]?
Answer: 0

Question: What about the “Giant foxtail plant response rating” value [7, 20] of the same compound?
Answer: 0

Question: What about the “Plant response rating, Giant foxtail” value [7, 21] of the same compound?
Answer: 0

Question: And the “Plant response rating, Giant foxtail” value [7, 22]?
Answer: 0

Question: What about the “Plant response rating, Giant foxtail” value [7, 23] of the same compound?
Answer: 4

Question: And the “Giant foxtail plant response rating” value [7, 24]?
Answer: 0

Question: And the “Giant foxtail plant response rating” value [7, 25]?
Answer: 0

Question: And the “Wild oats plant response rating” value [8, 18]?
Answer: 0

Question: And the “Wild oats plant response rating” value [8, 19]?
Answer: 0

Question: What about the “Wild oats plant response rating” value [8, 20] of the same compound?
Answer: 0

Question: What about the “Plant response rating, Wild oats” value [8, 22] of the same compound?
Answer: 0

Question: And the “Plant response rating, Wild oats” value [8, 23]?
Answer: 0

Question: And the “Wild oats plant response rating” value [8, 25]?
Answer: 0

Question: And the “Rice plant response rating” value [9, 18]?
Answer: 0

Question: What about the “Rice plant response rating” value [9, 26] of the same compound?
Answer: 0

Question: And the “Rice plant response rating” value [9, 28]?
Answer: 0

Question: What about the “Rice plant response rating” value [9, 27] of the same compound?
Answer: 0

Question: What about the “Barnyardgrass plant response rating” value [10, 18] of the same compound?
Answer: 0

Question: And the “Barnyardgrass plant response rating” value [10, 26]?
Answer: 0

Question: And the “Barnyardgrass plant response rating” value [10, 28]?
Answer: 0

Question: And the “Barnyardgrass plant response rating” value [10, 27]?
Answer: 0

Question: What about the “Velvetleaf plant response rating” value [11, 18] of the same compound?
Answer: 0

Question: And the “Velvetleaf plant response rating” value [11, 19]?
Answer: 0

Question: What about the “Velvetleaf plant response rating” value [11, 20] of the same compound?
Answer: 0

Question: And the “Plant response rating, Velvetleaf” value [11, 21]?
Answer: 0

Question: What about the “Plant response rating, Velvetleaf” value [11, 22] of the same compound?
Answer: 0

Question: What about the “Plant response rating, Velvetleaf” value [11, 23] of the same compound?
Answer: 0

Question: And the “Velvetleaf plant response rating” value [11, 25]?
Answer: 0

Question: What about the “Soybean plant response rating” value [12, 18] of the same compound?
Answer: 1

Question: And the “Soybean plant response rating” value [12, 19]?
Answer: 2

Question: And the “Soybean plant response rating” value [12, 20]?
Answer: 0

Question: What about the “Plant response rating, Soybean” value [12, 21] of the same compound?
Answer: 0

Question: What about the “Plant response rating, Soybean” value [12, 22] of the same compound?
Answer: 0

Question: And the “Plant response rating, Soybean” value [12, 23]?
Answer: 0

Question: And the “Soybean plant response rating” value [12, 25]?
Answer: 1

Question: What about the “Crabgrass plant response rating” value [13, 18] of the same compound?
Answer: 0

Question: What about the “Crabgrass plant response rating” value [13, 19] of the same compound?
Answer: 1

Question: And the “Crabgrass plant response rating” value [13, 20]?
Answer: 0

Question: What about the “Plant response rating, Crabgrass” value [13, 21] of the same compound?
Answer: 0

Question: And the “Plant response rating, Crabgrass” value [13, 22]?
Answer: 0

Question: And the “Plant response rating, Crabgrass” value [13, 23]?
Answer: 3

Question: And the “Crabgrass plant response rating” value [13, 24]?
Answer: 0

Question: What about the “Crabgrass plant response rating” value [13, 25] of the same compound?
Answer: 0

Question: And the “Morningglory plant response rating” value [14, 18]?
Answer: 1

Question: And the “Morningglory plant response rating” value [14, 19]?
Answer: 3

Question: What about the “Morningglory plant response rating” value [14, 20] of the same compound?
Answer: 0

Question: What about the “Plant response rating, Morningglory” value [14, 21] of the same compound?
Answer: 0

Question: What about the “Plant response rating, Morningglory” value [14, 22] of the same compound?
Answer: 0

Question: And the “Plant response rating, Morningglory” value [14, 23]?
Answer: 0

Question: What about the “Morningglory plant response rating” value [14, 24] of the same compound?
Answer: 0

Question: And the “Morningglory plant response rating” value [14, 25]?
Answer: 1

Question: What about the “Bedstraw plant response rating” value [15, 18] of the same compound?
Answer: 0

Question: And the “Bedstraw plant response rating” value [15, 19]?
Answer: 0

Question: And the “Bedstraw plant response rating” value [15, 20]?
Answer: 0

Question: What about the “Plant response rating, Bedstraw” value [15, 21] of the same compound?
Answer: 0

Question: And the “Plant response rating, Bedstraw” value [15, 22]?
Answer: 0

Question: What about the “Plant response rating, Bedstraw” value [15, 23] of the same compound?
Answer: 0

Question: And the “Bedstraw plant response rating” value [15, 24]?
Answer: 0

Question: And the “Bedstraw plant response rating” value [15, 25]?
Answer: 0

Question: What about the “Wheat plant response rating” value [16, 18] of the same compound?
Answer: 0

Question: And the “Wheat plant response rating” value [16, 19]?
Answer: 0

Question: And the “Wheat plant response rating” value [16, 20]?
Answer: 0

Question: And the “Plant response rating, Wheat” value [16, 21]?
Answer: 0

Question: What about the “Plant response rating, Wheat” value [16, 22] of the same compound?
Answer: 0

Question: And the “Plant response rating, Wheat” value [16, 23]?
Answer: 0

Question: And the “Wheat plant response rating” value [16, 25]?
Answer: 0

Question: What about the “Ducksalad plant response rating” value [17, 18] of the same compound?
Answer: 0

Question: What about the “Ducksalad plant response rating” value [17, 26] of the same compound?
Answer: 0

Question: And the “Ducksalad plant response rating” value [17, 28]?
Answer: 0

Question: What about the “Ducksalad plant response rating” value [17, 27] of the same compound?
Answer: 0
